Test results as given in article PMC4741971, “The dual topoisomerase inhibitor A35 preferentially and specially targets topoisomerase 2α by enhancing pre-strand and post-strand cleavage and inhibiting DNA religation” (Oncotarget, 2015).

Experiments:
Assay type in all cases: biochemical
top1 [1] = target: T1, top1 (Homo sapiens, UniProt P11387); experiment: top1-mediated DNA relaxation assay; also top1-mediated DNA cleavage and TARDIS in cells
T1 sequence (P11387 2-765): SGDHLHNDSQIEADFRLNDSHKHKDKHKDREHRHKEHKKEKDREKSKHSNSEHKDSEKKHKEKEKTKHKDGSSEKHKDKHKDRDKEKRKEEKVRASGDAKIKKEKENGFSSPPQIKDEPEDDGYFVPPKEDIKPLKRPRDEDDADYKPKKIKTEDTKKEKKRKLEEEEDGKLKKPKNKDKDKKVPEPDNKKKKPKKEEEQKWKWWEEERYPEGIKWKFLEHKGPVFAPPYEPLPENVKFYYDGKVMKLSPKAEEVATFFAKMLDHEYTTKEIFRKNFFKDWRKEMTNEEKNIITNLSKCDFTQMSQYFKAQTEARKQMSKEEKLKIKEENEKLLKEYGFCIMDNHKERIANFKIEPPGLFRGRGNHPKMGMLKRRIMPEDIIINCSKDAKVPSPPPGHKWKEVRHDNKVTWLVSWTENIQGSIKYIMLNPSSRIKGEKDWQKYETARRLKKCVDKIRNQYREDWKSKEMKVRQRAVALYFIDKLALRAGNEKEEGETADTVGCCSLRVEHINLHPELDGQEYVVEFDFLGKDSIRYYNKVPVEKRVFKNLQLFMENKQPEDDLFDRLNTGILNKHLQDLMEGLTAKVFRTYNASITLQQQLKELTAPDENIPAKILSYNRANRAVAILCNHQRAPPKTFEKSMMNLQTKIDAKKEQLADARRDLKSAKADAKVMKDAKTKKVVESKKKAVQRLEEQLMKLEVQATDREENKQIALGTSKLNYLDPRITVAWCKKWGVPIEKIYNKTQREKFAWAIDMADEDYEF

top2α [2] = target: T2, top2α (Homo sapiens, UniProt P11388); experiment: top2α-mediated pBR322 DNA relaxation assay; also cleavage and religation assays and TARDIS in cells
T2 construct: gene TOP2A

top1 [3] = target: T1, top1; experiment: top1-mediated cleavage of […]'-end-labeled 117-bp oligonucleotide
top2α [4] = target: T2, top2α; experiment: top2α-mediated pBR322 DNA relaxation assay at […]
top2β = target: T3, top2β (Homo sapiens, UniProt Q02880); experiment: purified top2β-mediated pBR322 DNA cleavage assay
T3 construct: gene TOP2B
T3 sequence (Q02880 2-1626): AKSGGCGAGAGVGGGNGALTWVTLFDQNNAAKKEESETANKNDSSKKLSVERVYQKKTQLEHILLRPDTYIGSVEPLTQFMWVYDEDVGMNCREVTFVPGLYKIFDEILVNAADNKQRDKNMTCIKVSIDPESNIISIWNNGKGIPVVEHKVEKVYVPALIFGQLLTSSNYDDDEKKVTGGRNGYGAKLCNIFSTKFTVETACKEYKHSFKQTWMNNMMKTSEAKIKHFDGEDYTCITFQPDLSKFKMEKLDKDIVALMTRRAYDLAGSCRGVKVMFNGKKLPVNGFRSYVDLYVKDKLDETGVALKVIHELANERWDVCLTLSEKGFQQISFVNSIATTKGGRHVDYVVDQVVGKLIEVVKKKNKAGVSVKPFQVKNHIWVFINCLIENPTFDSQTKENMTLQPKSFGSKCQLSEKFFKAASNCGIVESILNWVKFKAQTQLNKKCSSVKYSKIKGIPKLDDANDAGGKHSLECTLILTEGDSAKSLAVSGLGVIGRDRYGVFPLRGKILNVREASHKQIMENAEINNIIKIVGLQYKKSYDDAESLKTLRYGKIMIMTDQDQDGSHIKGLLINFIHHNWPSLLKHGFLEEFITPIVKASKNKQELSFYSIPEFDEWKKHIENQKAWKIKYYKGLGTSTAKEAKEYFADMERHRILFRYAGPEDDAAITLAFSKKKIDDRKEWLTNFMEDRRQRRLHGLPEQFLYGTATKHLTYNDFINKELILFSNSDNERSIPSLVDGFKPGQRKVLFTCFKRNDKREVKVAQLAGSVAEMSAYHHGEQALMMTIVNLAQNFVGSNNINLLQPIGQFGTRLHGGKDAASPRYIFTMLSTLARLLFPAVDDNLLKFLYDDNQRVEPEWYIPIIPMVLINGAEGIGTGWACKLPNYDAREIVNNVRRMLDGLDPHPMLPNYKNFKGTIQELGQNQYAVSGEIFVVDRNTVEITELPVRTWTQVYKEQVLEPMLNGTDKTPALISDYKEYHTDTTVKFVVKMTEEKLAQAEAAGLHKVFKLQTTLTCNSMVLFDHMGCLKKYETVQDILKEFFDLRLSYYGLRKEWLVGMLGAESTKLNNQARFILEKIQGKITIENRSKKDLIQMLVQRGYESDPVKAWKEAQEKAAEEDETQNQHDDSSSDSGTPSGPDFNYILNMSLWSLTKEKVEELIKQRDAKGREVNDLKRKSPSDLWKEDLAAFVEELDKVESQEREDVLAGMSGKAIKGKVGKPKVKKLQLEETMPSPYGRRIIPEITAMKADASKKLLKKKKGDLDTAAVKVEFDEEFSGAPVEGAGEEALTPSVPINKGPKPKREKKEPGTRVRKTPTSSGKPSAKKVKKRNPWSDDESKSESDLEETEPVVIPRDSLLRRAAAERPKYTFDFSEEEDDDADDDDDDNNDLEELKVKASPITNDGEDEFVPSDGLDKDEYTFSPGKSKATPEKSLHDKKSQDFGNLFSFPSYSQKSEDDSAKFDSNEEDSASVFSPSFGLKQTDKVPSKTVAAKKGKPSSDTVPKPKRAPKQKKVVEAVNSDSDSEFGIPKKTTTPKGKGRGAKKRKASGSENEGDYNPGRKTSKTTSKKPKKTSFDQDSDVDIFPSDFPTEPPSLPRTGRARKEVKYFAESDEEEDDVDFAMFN

T2 sequence (P11388 whole entry): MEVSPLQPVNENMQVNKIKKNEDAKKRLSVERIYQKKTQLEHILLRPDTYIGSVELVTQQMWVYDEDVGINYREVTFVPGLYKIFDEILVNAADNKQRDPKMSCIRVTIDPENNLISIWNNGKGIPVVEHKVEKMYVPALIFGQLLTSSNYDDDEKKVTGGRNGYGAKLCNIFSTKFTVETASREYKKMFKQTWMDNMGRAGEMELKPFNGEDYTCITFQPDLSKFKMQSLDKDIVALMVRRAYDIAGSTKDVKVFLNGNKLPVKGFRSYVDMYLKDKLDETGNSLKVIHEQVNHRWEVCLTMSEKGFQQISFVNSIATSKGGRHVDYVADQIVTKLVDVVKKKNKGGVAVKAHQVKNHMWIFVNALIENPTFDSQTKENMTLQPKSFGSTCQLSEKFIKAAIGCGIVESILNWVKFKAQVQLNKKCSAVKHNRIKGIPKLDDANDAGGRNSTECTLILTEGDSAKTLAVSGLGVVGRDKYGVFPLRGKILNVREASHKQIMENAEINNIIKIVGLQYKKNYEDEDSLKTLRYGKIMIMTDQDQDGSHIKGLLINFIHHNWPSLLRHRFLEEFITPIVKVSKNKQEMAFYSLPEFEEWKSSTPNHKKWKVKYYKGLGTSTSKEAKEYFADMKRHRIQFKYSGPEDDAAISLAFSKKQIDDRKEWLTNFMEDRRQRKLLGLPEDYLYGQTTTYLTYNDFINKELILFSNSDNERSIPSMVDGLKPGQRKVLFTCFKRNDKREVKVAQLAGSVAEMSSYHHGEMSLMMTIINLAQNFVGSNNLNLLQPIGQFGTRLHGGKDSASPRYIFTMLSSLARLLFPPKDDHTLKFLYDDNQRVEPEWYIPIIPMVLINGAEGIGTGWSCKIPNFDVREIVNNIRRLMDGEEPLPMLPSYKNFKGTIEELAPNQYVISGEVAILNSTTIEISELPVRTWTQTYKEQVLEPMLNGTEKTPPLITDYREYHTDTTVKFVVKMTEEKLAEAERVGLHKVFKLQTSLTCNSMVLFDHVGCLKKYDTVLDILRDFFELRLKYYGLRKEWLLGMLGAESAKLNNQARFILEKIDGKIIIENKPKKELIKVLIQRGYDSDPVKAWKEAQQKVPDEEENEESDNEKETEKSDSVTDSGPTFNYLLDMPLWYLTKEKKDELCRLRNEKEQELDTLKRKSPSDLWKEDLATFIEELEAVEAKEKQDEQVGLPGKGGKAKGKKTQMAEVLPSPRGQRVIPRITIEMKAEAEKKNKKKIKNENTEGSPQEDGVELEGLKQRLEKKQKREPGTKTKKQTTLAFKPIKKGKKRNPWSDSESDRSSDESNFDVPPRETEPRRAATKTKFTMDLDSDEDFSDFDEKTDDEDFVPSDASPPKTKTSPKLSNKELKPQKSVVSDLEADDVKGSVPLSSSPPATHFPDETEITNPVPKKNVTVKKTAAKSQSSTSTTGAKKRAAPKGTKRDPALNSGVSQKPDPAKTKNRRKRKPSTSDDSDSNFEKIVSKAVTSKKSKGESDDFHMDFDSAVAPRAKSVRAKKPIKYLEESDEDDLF

## COc1ccc2c(c[n+]3c4c2ccc2c5c(cc(c24)CC3)OCO5)c1OC(=O)c1ccccc1 [A35]
top1 [1]
  IC50: 22.1 µM
top2α [2]
  IC50: 560 nM

## CC[C@@]1(O)C(=O)OCc2c1cc1n(c2=O)Cc2cc3c(CN(C)C)c(O)ccc3nc2-1 [TPT, topotecan]
top1 [3]
  top1-mediated cleavage of 3'-end-labeled 117-bp oligonucleotide: the DNA breakage effect was weak and far less than the positive control TPT (topotecan)

## COc1cc([C@@H]2c3cc4c(cc3[C@@H](O[C@@H]3O[C@@H]5CO[C@@H](C)O[C@H]5[C@H](O)[C@H]3O)[C@H]3COC(=O)[C@H]23)OCO4)cc(OC)c1O [VP16, etoposide]
top2α [4]
  top2α-mediated pBR322 DNA relaxation assay at 10 μM: inhibitory activity of A35 on top top2α was much higher than that of etoposide (VP16)
top2β
  purified top2β-mediated pBR322 DNA cleavage assay: A35 did not lead to DNA breakage mediated by top2β and the positive (VP16) control induced significant DNA breakage
